Results: US20010020029A1, “New multidose vial formulations for administering endo-N-(9-methyl-9-azabicyclo[3.3.1]non-3-yl)-1-methyl-1H- indazole-3-carboxamide hydrochloride” (SmithKline Beecham p.l.c., priority 1998, published 2001)
Marks after values point to notes of the source that are not given here.

Assays:
[1] = Stability of preservative systems to autoclave (placebo solutions, pH6, 121° C.); assay type: physicochemical; details: for Content after 15 mins (% of initial): autoclaved 15 minutes at 121° C.; for Content after 15 mins (% of initial) / Contents after 60 mins (% of initial): pH6; for Contents after 60 mins (% of initial): autoclaved 60 minutes at 121° C.; for Initial content: placebo solution pH6, before autoclaving; for stability to autoclaving (in words): up to 60 minutes at 121° C.; for Area percent for the unknown peak at 15 mins / Content at 15 mins (percentage of total peak area): autoclaved 15 mins; for Area percent for the unknown peak at 60 mins / Content at 60 mins (percentage of total peak area): autoclaved 60 mins; for Area percent for the unknown peak, initial / Initial content (percentage of total peak area): before autoclaving; for Content at 15 mins (percentage of total peak area) / Content at 60 mins (percentage of total peak area) / Initial content (percentage of total peak area): single paraben system, area normalisation
Description: The five preservative systems were assessed for stability to the autoclave process. Placebo solutions were prepared at pH6, filled into 2 ml glass vials and autoclaved for 15 and 60 minutes at 121° C. A cycle time of 60 minutes was selected to mimic the most extreme conditions to which a vial on the outside of a full autoclave load could be subjected to. Solutions were prepared at pH6 since this was the target pH of the multidose dose formulation. The early experiments were performed using 2 ml flint glass vials and West #1816 Teflon faced, bromobutyl rubber stopper.
External standards of the parabens could not be prepared due to their poor aqueous solubility. The results were therefore determined by are normalization, whereby peak areas are expressed as a percentage of the total peak area of the chromatograph.
NOTE: The results are expressed as percentage of total peak area determined by area normalisation.
Area percent for the unknown peak

[2] = system: bacteria, yeasts and molds; test: USP test for preservative efficacy (overall); assay type: cell-based; details: 1% w/w, full vials, at the time of manufacture
Description: The target pH of the multidose vial is 6 and limits of 5 to 7. […] Efficacy of the preservative was therefore assessed over the lower pH range 4 to 6. Vials prepared at pH4, 5 and 6 were tested for preservative efficacy according to the USP XXII 1990—“Antimicrobial Preservative Effectiveness.”
For bacteria, the acceptance criteria require that the number of organisms per mL is reduced by a factor of not less than 10^3 in 14 days and there is no increase thereafter. All three batches met these criteria for P aeruginosa, S. aureus and E. coli.
All three batches met this criterion for C. albicans and A. niger.
In summary, vials prepared at pH4, 5 and 6 all pass the USP test for preservative efficacy.

[3] = system: gram-positive and gram-negative bacteria, yeasts and molds; details: cited from earlier work; for efficacy against gram-positive and gram-negative bacteria, yeasts and molds: over the pH range 5-7
[4] = Stability of meta-cresol formulation to autoclaving; assay type: physicochemical; details: autoclave cycle
Description: To investigate this phenomenon further, the stability during autoclaving experiment was repeated on samples of the meta-cresol formulation. The degradation product content increased from 0.05% before autoclaving to 0.53% at 15 minutes then 0.93% at 60 minutes. […] Meta-cresol was therefore rejected as a possible preservative.

Row | Area percent for the unknown peak at 15 mins [1] | Area percent for the unknown peak at 60 mins [1] | Area percent for the unknown peak, initial [1] | Content at 15 mins (percentage of total peak area) [1] | Content at 60 mins (percentage of total peak area) [1] | Initial content (percentage of total peak area) [1] | Structure (SMILES) | Content after 15 mins (% of initial) [1] | Contents after 60 mins (% of initial) [1] | Initial content [1] | stability to autoclaving (in words) [1] | antimicrobial preservative efficacy [2] | efficacy as a function of pH ([3]; literature) | efficacy against gram-positive and gram-negative bacteria, yeasts and molds [3] | compatibility with granisetron hydrochloride [4]
1 |  |  |  |  |  |  | OCc1ccccc1 [Benzyl Alcohol, Benzyl alcohol] | 100 % of initial | 100 % of initial | 10.0 mg/mL | good stability with no change in preservative content | efficacious | decreases with increasing pH above pH5 | moderate efficacy | 
2 |  |  |  |  |  |  | Cc1cccc(O)c1 [Meta-Cresol, Meta-cresol] | 100 % of initial | 100 % of initial | 2.6 mg/mL | good stability with no change in preservative content |  |  | good efficacy | incompatible
3 | (3.7%)* | (6.5%)* | (0.2%)* | 96.3% | 93.5% | 99.8% | COC(=O)c1ccc(O)cc1 [Methyl-Parabens, Methyl paraben] |  |  |  |  |  |  |  | 
4 | 1.6% | 2.7% | 0.6% | 98.4% | 97.2% | 99.4% | CCCOC(=O)c1ccc(O)cc1 [Propyl Parabens, Propyl paraben] |  |  |  |  |  |  |  | 
